Source: US7625912B2, “Mitotic kinesin inhibitors” (Merck & Co. Inc, priority 2003, dated 2009)
pIC50: −log10 of the molar value.

Molecular target: T1, human KSP motor domain (KSP(367H)) (Homo sapiens, UniProt P52732)
T1 construct: were used to amplify the motor domain and the neck linker region; made in house; host or cells: E. coli BL21 (DE3), pRSETa vector
T1 sequence (P52732 18-359 limits assumed): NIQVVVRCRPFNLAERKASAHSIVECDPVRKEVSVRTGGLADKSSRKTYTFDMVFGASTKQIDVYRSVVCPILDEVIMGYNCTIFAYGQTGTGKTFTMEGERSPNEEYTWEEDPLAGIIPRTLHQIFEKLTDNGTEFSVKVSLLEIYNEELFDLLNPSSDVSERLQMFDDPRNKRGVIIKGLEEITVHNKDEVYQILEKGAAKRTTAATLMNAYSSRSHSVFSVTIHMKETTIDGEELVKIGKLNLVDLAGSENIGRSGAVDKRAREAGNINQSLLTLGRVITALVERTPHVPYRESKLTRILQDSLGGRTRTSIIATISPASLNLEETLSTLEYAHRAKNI
Experiment: Kinesin ATPase in vitro assay
Assay type: biochemical
Conditions: microtubules, 1 mM ATP, 23° C.; free phosphate by quinaldine red/ammonium molybdate, absorbance 540 nm
Text: I. Kinesin ATPase In Vitro Assay
Cloning and Expression of Human Poly-Histidine Tagged KSP Motor Domain (KSP(367H))
Plasmids for the expression of the human KSP motor domain construct were cloned by PCR using a pBluescript full length human KSP construct (Blangy et al., Cell, vol. 83, pp 1159-1169, 1995) as a template. The N-terminal primer 5′-[…] (SEQ.ID.NO.: 1) and the C-terminal primer 5′-[…] […] (SEQ.ID.NO.: 2) were used to amplify the motor domain and the neck linker region. The PCR products were digested with AseI and XhoI, ligated into the NdeL/XhoI digestion product of pRSETa (Invitrogen) and transformed into E. coli BL21 (DE3).
Cells were grown at 37° C. to an OD600 of 0.5. […]
The kinesin motor domain is incubated with microtubules, 1 mM ATP (1:1 MgCl2: Na-ATP), and compound at 23° C. in buffer containing 80 mM K-HEPES (pH 7.0), 1 mM EGTA, 1 mM DTT, 1 mM MgCl2, and 50 mM KCl. […] Free phosphate from the ATP hydrolysis reaction is measured via a quinaldine red/ammonium molybdate assay by adding 150 μl of quench C buffer containing a 2:1 ratio of quench A:quench B. Quench A contains 0.1 mg/ml quinaldine red and 0.14% polyvinyl alcohol; quench B contains 12.3 mM ammonium molybdate tetrahydrate in 1.15 M sulfuric acid. The reaction is incubated for 10 minutes at 23° C., and the absorbance of the phospho-molybdate complex is measured at 540 nm.

`Cc1ccc(-n2c(-c3ccccc3Br)nccc2=O)cc1F` [1-4, 2-(2-bromophenyl)-3-(3-fluoro-4-methylphenyl)pyrimidin-4(3H)-one] showed a pIC50 of at least 4.30.
